# Experiments:
# Format in all cases: cell-based
# [1] = tested on: SK-N-SH neuroblastoma cells; assay: Cytotoxicity assay, MTS viability; settings: Homo sapiens, 72 hours
# Description: The ability of compounds of the disclosure to inhibit the proliferation of SK—N—SH neuroblastoma cells was assessed. The SK—N—SH cell line was maintained as a monolayer in Dulbeccos Modified Eagles medium (DMEM) supplemented with 10% foetal bovine serum (FBS) and grown at 37° C. in a humidified atmosphere with 5% CO2. For the cytotoxicity assay, SK—N—SH cells were seeded at a density of 2×10^3 cells per well in 96-well plates. The cells were treated with serial dilutions of the test compounds (1:2 starting concentration 100 µM) and viability measured after 72 hours using a standard MTS assay. Cell viability was normalised to control (vehicle alone) and dose response curves and EC50 values (Table 3) were determined using Graph Pad Prism 6.
# [2] = tested on: A2780 ovarian cancer cells; assay: Drug combination screen, 6x6 dose matrix, Bliss-independence synergy; parameters: key to Max. Synergy, Vinorelbine: Bliss synergy score; 0 = no synergy, negative = antagonism; highest in matrix; key to Total Synergy, Vinorelbine: sum of Bliss synergy scores across the dose matrix; settings: 72 h (26*: 96-well plate format); for Max. Synergy, Paclitaxel / Total Synergy, Paclitaxel: combination with paclitaxel; for Max. Synergy, Paclitaxel / Max. Synergy, Vinorelbine: Bliss score; for Total Synergy, Paclitaxel / Total Synergy, Vinorelbine: sum of Bliss scores of the matrix; for Max. Synergy, Vinorelbine / Total Synergy, Vinorelbine: combination with vinorelbine
# Description: (§1) In vitro growth inhibition assays were performed as technical triplicate in two independent experiments and cell viability was assessed by Alamar Blue assay readout. Briefly, cells in logarithmic phase growth were seeded in 384-well plates in a 50 μL/well assay volume. Cells were seeded at 1,200 cells/well using a Multidrop 384 (Thermo Scientific) and allowed to adhere at 37° C. with 5% CO2, in a humidified atmosphere (LiCONIC incubator). After 24 hours incubation, test compounds, positive control (20 μM Thonzonium bromide, 100% kill) and vehicle only (0.4% DMSO) were added into wells of each assay plate using a Tecan HP D300 Digital Dispenser in technical triplicate under minimum light. Following 72 hours drug exposure, metabolic activity was detected by addition of 10% (v/v) Alamar Blue reagent to each assay well using a Multidrop Cambi (Thermo Scientific) and determined by measurement of fluorescence intensity (excitation 555 nm, emission 585 nm) using an EnSpire (Perkin Elmer) plate reader. Readings were performed at 0 hour (background) and after 6 hours alamar blue incubation at 37° C.
# The two drugs in each combination matrix were dispensed using a Tecan HP D300 Digital Dispenser. Assays were performed in triplicate for each drug combination (test compound/vinorelbine and test compound/paclitaxel combinations). Synergistic drug interactions were calculated from the averaged cell viability data using the methodology described below.
# Synergistic drug interactions were determined for each pa1rw1se drug combination by applying the Bliss-independence model that assumes independence of drug mechanisms. Prior to the analysis, percent cell viability (CV) for combination data were converted to fractional cell growth inhibition (GI) by the formula: […]
# The Bliss additivism model was used to calculate a predicted combined response C to two single agents with responses A and B (using GI values), as follows:
# The final score for any combination was reported as the difference between the value predicted by the additive model and the experimentally observed value, normalised to 100. Using GI values the maximum possible synergy score is 100, with 0 indicating no synergy and negative indicating possible antagonism. Scores were also reported as a “Max synergy” score, which is the highest individual synergy score for each combination matrix, and a “Total synergy” score, which was obtained by summation of each individual synergy score for the matrix.
# The single agent IC50 values for the test compounds and their synergy scores in combination with vinorelbine and paclitaxel are presented in Table 4. The data is listed as IC50 mean from technical triplicates for two independent experiments. The averaged IC50 concentrations for the single agents from both runs were then used to generate the 6×6 dose matrices in the synergy experiment. Synergy scores for each drug combination were calculated by the Bliss-independence model. The maximum synergy and total synergy scores for each combination in A2780 cells are listed.
# [3] = tested on: A2780 ovarian cancer cells; assay: In vitro growth inhibition assay, Alamar Blue, single agent IC50; settings: Homo sapiens, 72 h drug exposure, Alamar Blue, 384-well (26*: 96-well plate format), read-out: Single-agent IC50
# Description: as §1
# Each drug was tested as a 10-point concentration series with two-fold serial dilutions of each drug. The concentration series for compounds 6 and 8 was 100, 50, 25, 12.5, 6.25, 3.125, 1.563, 0.781, 0.391 and 0.195 μM and for compounds 24, 43 and 48 was 50, 25, 12.5, 6.25, 3.125, 1.563, 0.781, 0.391, 0.195 and 0.098 μM for the two independent experiments. The concentration series for vinorelbine and paclitaxel was 100, 50, 25, 12.5, 6.25, 3.125, 1.5625, 0.781, 0.391 and 0.195 nM. Thonzonium bromide (20 μM) and 0.4% DMSO were used as positive and vehicle controls, respectively. The IC50 value was calculated by derivation of the best-fit line using a sigmoidal dose response model (Activity Base Software Suite, IDES).
# Activity Base software suite (IDES, version 8.3.0.175) was used for data analysis. Cell survival is expressed as a percentage of viable cells. IC50 concentrations were calculated by derivation of the best-fit line using a sigmoidal dose response model with technical triplicate data points.
# A549 (NSCLC) cells = assay: Anti-proliferative activity, Cell-Titre luminescent viability assay; settings: Homo sapiens, 72 h exposure, Cell-Titre luminescent reagent
# Outline: (§2)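 Cells attached 24 h at 37° C., 5% CO2, then treated 72 h with compound at 0.3–100 μM or 0.1–30 μM. Viability read by Cell-Titre luminescence after 30 min reagent exposure, normalized to vehicle; EC50 from variable-slope sigmoidal nonlinear regression.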
# A2780 (ovarian) cells = assay: as above; settings: Homo sapiens, 72 h exposure, Cell-Titre luminescent reagent
# Outline: as §2
# [4] = biological target: T1, Tpm3.1-containing actin microfilaments in SK-N-SH neuroblastoma cells (Homo sapiens, UniProt P06753); assay: Imaging and quantitation of Tpm3.1 mCherry and 488-Atto-Phalloidin actin filaments; settings: 24 hours post-treatment, two concentrations, FIG. 2 and FIG. 3
# T1 construct: expressed in transfected cells; host or cells: SK-N-SH neuroblastoma cells
# Description: The ability of compounds 24, 26 and 143 to disrupt Tpm3.1-containing actin microfilaments was investigated in SK—N—SH neuroblastoma cells that express Tpm3.1 labelled with the mCherry fluorophore. Cells were seeded at 3×10^4 cells per well in a volume of 1000 μL complete media onto a 12 well plate containing 13 mm coverslips and left to plate down for 24 hours prior to treatment. Cells were then treated with DMSO and two concentrations of the test compounds. 24 hours post-treatment, cells were fixed with 16% paraformaldehyde (PBS) and stained with 488-Atto-Phalloidin to visualise the actin filament bundles. Single plane images were obtained using the Olympus IX83 epi-fluorescence microscope. Ten fields of view were collected for both Tpm3.1 mCherry fluorophore (FIG. 2) and 488-Atto-Phalloidin (FIG. 3) with each treatment condition.
# Quantitation of either Tpm3.1 mCherry filaments or 488-Atto-Phalloidin filaments was performed using ImageJ 1.52p software (ImageJ, NIH). The mean pixel intensity from a cell was measured by using a line across the entire cell cytoplasmic area above or below the nuclear region. The line was made to cross the filament bundles at a 90° angle for the measurement rather than run along a single filament. A total of n=100 cells were measured from ten fields of view. […]
# [5] = tested on: Caco-2 (colorectal) cells; assay: Anti-proliferative activity, Cell-Titre luminescent viability assay; settings: Homo sapiens, 72 h exposure, Cell-Titre luminescent reagent
# Outline: as §2
# PC3 (prostate) cells = assay: as above; settings: 72 h exposure, Cell-Titre luminescent reagent
# Outline: as §2
# [6] = tested on: MIA PaCa-2 (pancreatic) cells; assay: as above; settings: Homo sapiens, 72 h exposure, Cell-Titre luminescent reagent
# Outline: as §2
# T1 sequence (P06753 1-248 isoform P06753-2): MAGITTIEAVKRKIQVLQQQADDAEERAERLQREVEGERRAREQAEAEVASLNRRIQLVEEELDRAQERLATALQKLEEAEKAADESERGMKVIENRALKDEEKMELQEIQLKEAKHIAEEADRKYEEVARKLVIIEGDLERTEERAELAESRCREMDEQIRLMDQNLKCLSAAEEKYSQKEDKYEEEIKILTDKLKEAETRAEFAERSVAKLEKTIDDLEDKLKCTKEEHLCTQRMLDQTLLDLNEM
IC50 [3] [µM],IC50 (A549 (NSCLC) cells) [µM],IC50 (A2780 (ovarian) cells) [µM],IC50 [5] [µM],IC50 (PC3 (prostate) cells) [µM],IC50 [6] [µM],Structure (SMILES),IC50 [1] [µM],"Max. Synergy, Paclitaxel [2]","Total Synergy, Paclitaxel [2]","Max. Synergy, Vinorelbine [2]","Total Synergy, Vinorelbine [2]",Disruption of Tpm3.1-containing actin microfilaments [4]
12,24.9,15.1,–,–,–,"CCC(C)c1ccc(NC(=O)C2CCN(S(=O)(=O)c3ccc4[nH]ccc4c3)CC2)cc1 (centres unmarked) [Compound 6, 1-((1H-indol-5-yl)sulfonyl)-N-(4-(sec-butyl)phenyl)piperidine-4-carboxamide]",5.66,6.78,−46.04,42.36,250.66,–
13,18,1.9,–,–,–,"Cc1ccc(NC(=O)c2ccn(S(=O)(=O)c3ccc4[nH]ccc4c3)c2)cc1 [Compound 43, 1-((1H-indol-5-yl)sulfonyl)-N-(p-tolyl)-1H-pyrrole-3-carboxamide]",17.4,12.46,3.06,10.94,73.13,–
14.9,3.3,2.5,–,–,–,"O=C(Nc1ccc(F)cc1)c1ccn(S(=O)(=O)c2ccc3[nH]ccc3c2)c1 [Compound 48, 1-((1H-indol-5-yl)sulfonyl)-N-(4-fluorophenyl)-1H-pyrrole-3-carboxamide]",7.56,31.55,263.84,17.28,68.74,–
14.5,12.1,11.7,–,–,–,"O=C(Nc1ccc(C(F)(F)F)cc1)C1CCN(S(=O)(=O)c2ccc3[nH]ccc3c2)CC1 [Compound 8, 1-((1H-indol-5-yl)sulfonyl)-N-(4-(trifluoromethyl)phenyl)piperidine-4-carboxamide]",11.4,8.95,−3.62,32.29,225.43,–
7.54,6,2.5,8.45,6.2,8.16,"CCC(C)c1ccc(NC(=O)c2ccn(S(=O)(=O)c3ccc4[nH]ccc4c3)c2)cc1 (centres unmarked) [Compound 24, 1-((1H-indol-5-yl)sulfonyl)-N-(4-(sec-butyl)phenyl)-1H-pyrrole-3-carboxamide]",7.4,16.56,111.86,14.27,61.75,disrupt Tpm3.1-containing actin microfilaments in a dose-dependent manner
